One assay concerns the target KPC-2 β-lactamase (Klebsiella pneumoniae, UniProt Q9F663). As to the kind of experiment: Inhibition kinetics with nitrocefin as reporter substrate. In kind it is biochemical. Particulars: 100 μM nitrocefin, 1×PBS pH 7.4, 25° C. On the procedure:
Inhibition or inactivation of KPC-2 by test inhibitors was assessed using 100 μM nitrocefin (NCF) as a reporter substrate. Assays were performed in 1×PBS pH 7.4, 0.1 mg/ml BSA, in 96-well half area plates, 50 μl reaction volume. NCF was dissolved in DMSO and diluted in assay buffer. Test inhibitors were dissolved in water or DMSO and serially diluted in the assay with final concentrations between 2000-0.195 μM.
The enzyme activity in the presence of varying concentrations of test inhibitor was determined by monitoring the hydrolysis of NCF spectrophotometrically at 486 nm, for 5 minutes, 25° C., using a SpectraMax Plus384 microplate reader with SoftMax Pro software (Molecular Devices). Data analysis was performed using GraphPad Prism (GraphPad Software, Inc.).
Progress curves were fit to a first-order rate decay equation (Eq. 1) to determine kobserved (kobs).
kobs vs. inhibitor concentration [I] curves were then fit to Eq.2 to determine the inhibitor dissociation constant (K) and the first order rate constant of enzyme inactivation at infinite inhibitor concentration (kinact). […] Yt=V0*(1−e^(−kobs*t))/kobs Eq. 1 Where Y is the absorbance at time t, V0 is the uninhibited enzyme velocity, kobs is the observed rate constant of the enzyme inactivation. kobs=kinact*[I]/([I]+K(1+S/Km)) Eq. 2 Where S is the NCF concentration, Km is the KPC-2 Km for NCF.

Assay [1] has as its system Kpn.2926 (CTX-M-15, OXA-48, clinical). As to the kind of experiment: Standard BLI potentiation MIC assay. In kind it is cell-based. Particulars: Klebsiella pneumoniae, read-out: MIC of β-lactam with BLI. On the procedure: (§1) The experimental protocol was performed according to Clinical and Laboratory Standards Institute (CLSI) guidelines with modifications as described below (CLSI guidelines can be derived from the CLSI document M07-A9 published in January 2012: “Methods for Dilution Antimicrobial Susceptibility Tests for Bacteria That Grow Aerobically; Approved Standard-Ninth Edition”).
(§2) To prepare for MIC testing, frozen glycerol stocks of clinical isolates (Klebsiella pneumoniae, Eschericia coli, Enterobacter spp, Citrobacter spp, or Pseudomonas aeruginosa) were used to streak for isolated colonies on rich, non-selective, tryptic soy agar containing 5% sheep's blood (TSAB). Frozen glycerol stocks of laboratory engineered, isogenic E. coli strains, which contain cloned β-lactamase expressing plasmids were used to streak for isolated colonies on rich, selective LB agar supplemented with 25 μg/mL tetracycline to maintain the plasmid. All strains were incubated at 37° C. for 18-24 hrs.
(§3) On the day of testing, primary cultures were started by scraping off 5-10 colonies from the TSAB plates containing clinical strains or the tetracycline supplemented LB plates containing engineered strains. The clinical strain material was suspended in ˜5 mL of cation adjusted Mueller Hinton Broth (CAMHB) in 14 mL culture tubes. The engineered strain material was suspended in CAMHB (supplemented with 25 μg/mL tetracycline) in 14 mL culture tubes. All strains were incubated at 37° C. with aeration (200 rpm) for ˜2 hrs until the optical density at 600 nm (OD600) was ≧0.1.
(§4) The two compound components of the assay were each diluted in CAMHB and added to the 96-well broth microdilution assay plates. 50 μL of the β-lactam was added to each well of the assay plate in 2-fold dilutions with final concentrations ranging from 128 to 0.13 μg/mL. 25 μL of the BLI compound was added to all wells in the broth microdilution plates at a final concentration of 4 μg/mL. Inoculum cultures were prepared by standardizing the primary cultures to OD600=0.1 and then adding 20 μL of the adjusted primary culture per 1 mL CAMHB for clinical strains or CAMHB (supplemented with tetracycline at 100 μg/mL) for engineered strains, so that the final inoculum density was ˜10^5 colony forming units per milliliter. Diluted inoculum cultures were used to inoculate 25 μL per well in 96-well broth microdilution assay plates. The final volume of each well was 100 μL and contained a β-lactam at different concentrations, a BLlcompound at 4 μg/mL concentration, the bacterial culture at an OD600 of approximately 0.001 and when necessary tetracycline at 25 μg/mL.
(§5) Plates were incubated for 18-20 hours at 37° C. with aeration (200 rpm). Following incubation, growth was confirmed visually placing plates over a viewing apparatus (stand with a mirror underneath) and then OD600 was measured using a SpectraMax 340PC384 plate reader (Molecular Devices, Sunnyvale, Calif.). Growth was defined as turbidity that could be detected with the naked eye or achieving minimum OD600 of 0.1. MIC values were defined as the lowest concentration producing no visible turbidity.

In assay [2] the test system is Pae.2808 (KPC-2, clinical). As to the kind of experiment: Standard BLI potentiation MIC assay. The assay is classed as cell-based. Particulars: Pseudomonas aeruginosa, read-out: MIC of β-lactam with BLI. On the procedure:
as §1, §2, §3, §4, §5

Assay [3] deals with Kpn.2478 (KPC-2, TEM+, clinical). As to the kind of experiment: Standard BLI potentiation MIC assay. The assay is classed as cell-based. As to conditions: Klebsiella pneumoniae, read-out: MIC of β-lactam with BLI. On the procedure:
as §1, §2, §3, §4, §5

In assay [4] the test system is Kpn.2490 (KPC-3, SHV+, TEM+, clinical). As to the kind of experiment: Standard BLI potentiation MIC assay. In kind it is cell-based. As to conditions: Klebsiella pneumoniae, read-out: MIC of β-lactam with BLI. On the procedure: as §1, §2, §3, §4, §5
In assay [5] the test system is Pae.2885 (AmpC, clinical). As to the kind of experiment: Standard BLI potentiation MIC assay. The assay is classed as cell-based. Particulars: Pseudomonas aeruginosa, read-out: MIC of β-lactam with BLI. How it is done: as §1, §2, §3, §4, §5
Assay [6] deals with Kpn.2913 (KPC-2, SHV+, clinical). Put plainly: Standard BLI potentiation MIC assay. The assay is classed as cell-based. Particulars: Klebsiella pneumoniae, read-out: MIC of β-lactam with BLI. On the procedure: as §1, §2, §3, §4, §5
The test system of assay [7] is Kpn.2917 (KPC-2, SHV+, clinical). Put plainly: Standard BLI potentiation MIC assay. The assay is classed as cell-based. Particulars: Klebsiella pneumoniae, read-out: MIC of β-lactam with BLI. How it is done:
as §1, §2, §3, §4, §5

The subject of assay [8] is Pae.2863 (AmpC de-repress, clinical). As to the kind of experiment: Standard BLI potentiation MIC assay. The assay is classed as cell-based. Particulars: Pseudomonas aeruginosa, read-out: MIC of β-lactam with BLI. On the procedure:
as §1, §2, §3, §4, §5

Assay [9] deals with Kpn.2909 (KPC-3, SHV+, TEM+, clinical). Put plainly: Standard BLI potentiation MIC assay. The assay is classed as cell-based. Particulars: Klebsiella pneumoniae, read-out: MIC of β-lactam with BLI. How it is done: as §1, §2, §3, §4, §5
In assay [10] the test system is Kpn.2783 (CTX-M-15, SHV+, TEM+, clinical). As to the kind of experiment: Standard BLI potentiation MIC assay. The assay is classed as cell-based. Particulars: Klebsiella pneumoniae, read-out: MIC of β-lactam with BLI. How it is done: as §1, §2, §3, §4, §5
Assay [11] deals with Pae.2757 (AmpC over-expn, clinical). Put plainly: Standard BLI potentiation MIC assay. In kind it is cell-based. Particulars: Pseudomonas aeruginosa, read-out: MIC of β-lactam with BLI. How it is done: as §1, §2, §3, §4, §5
The subject of assay [12] is Kpn.2914 (KPC-2, SHV+, clinical). As to the kind of experiment: Standard BLI potentiation MIC assay. As to conditions: Klebsiella pneumoniae, read-out: MIC of β-lactam with BLI. The assay is classed as cell-based. On the procedure: as §1, §2, §3, §4, §5
The subject of assay [13] is Kpn.2918 (KPC-3, SHV+, TEM+, clinical). As to the kind of experiment: Standard BLI potentiation MIC assay. The assay is classed as cell-based. Particulars: Klebsiella pneumoniae, read-out: MIC of β-lactam with BLI. How it is done:
as §1, §2, §3, §4, §5

Assay [14] has as its system Kpn.571 (TEM-26, clinical). Put plainly: Standard BLI potentiation MIC assay. The assay is classed as cell-based. As to conditions: Klebsiella pneumoniae, read-out: MIC of β-lactam with BLI. How it is done: as §1, §2, §3, §4, §5

For one molecule, Kinact/K and MIC results are on record in US9120795B2, “Crystalline form of a β-lactamase inhibitor” (Cubist Pharmaceuticals, Inc., priority 2013, dated 2015).

Chain of KPC-2 β-lactamase (Q9F663 25-293 limits assumed): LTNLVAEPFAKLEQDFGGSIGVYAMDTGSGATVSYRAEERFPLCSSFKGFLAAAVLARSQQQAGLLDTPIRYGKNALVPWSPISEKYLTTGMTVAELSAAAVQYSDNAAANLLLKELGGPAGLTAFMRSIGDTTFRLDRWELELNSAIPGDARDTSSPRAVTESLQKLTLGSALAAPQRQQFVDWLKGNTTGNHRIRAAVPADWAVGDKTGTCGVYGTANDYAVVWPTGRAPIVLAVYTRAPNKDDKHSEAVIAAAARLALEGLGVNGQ

As a reminder, the MIC is the least concentration at which growth counts as inhibited. At KPC-2 β-lactamase, `O=C1N2C[C@@H](CC[C@H]2c2nnco2)N1OS(=O)(=O)[O-].[Na+]` [Hydrate 1, sodium (2S,5R)-2-(1,3,4-oxadiazol-2-yl)-7-oxo-1,6-diazabicyclo[3.2.1]octan-6-yl sulfate] displayed a Kinact/K of 134000 to 163000 M⁻¹ s⁻¹. Besides, the MIC in assay [1] was in the range of 1 to 2 µg/mL; in assay [2], 4 to 8 µg/mL; in assay [3], 4 to 8 µg/mL; in [4], 0.25 to 0.5 µg/mL; in assay [5] it was 0.25 to 0.5 µg/mL; in assay [6] it was 0.25 to 0.5 µg/mL. For the same molecule, the MIC in [7] was 0.25 to 0.5 µg/mL; in assay [8] it was 1 to 2 µg/mL; in assay [9] it was 1 to 2 µg/mL; in [10], 0.25 to 0.5 µg/mL; in assay [11] it was 1 to 2 µg/mL; in assay [12], 1 to 2 µg/mL. The MIC fell in the range of 1 to 2 µg/mL in assay [13] and 0.25 to 0.5 µg/mL in assay [14].
